Measured values taken from patent US20160272617A1, “SUBSTITUTED PHENYLALANINE DERIVATIVES” (BAYER PHARMA AKTIENGESELLSCHAFT, priority 2013, published 2016).
Where a name gives a salt, the structure may show the parent alone.

These compounds were tested against T1, human factor XIa (Homo sapiens, UniProt P03951) (assay: Measurement of FXIa inhibition (fluorogenic peptide substrate Boc-Glu(OBzl)-Ala-Arg-AMC)). Settings: factor XIa from Kordia, 15 min preincubation, 30 min at 22° C., fluorescence.
T1 construct: purchased Kordia
T1 sequence (P03951 388-625 limits assumed): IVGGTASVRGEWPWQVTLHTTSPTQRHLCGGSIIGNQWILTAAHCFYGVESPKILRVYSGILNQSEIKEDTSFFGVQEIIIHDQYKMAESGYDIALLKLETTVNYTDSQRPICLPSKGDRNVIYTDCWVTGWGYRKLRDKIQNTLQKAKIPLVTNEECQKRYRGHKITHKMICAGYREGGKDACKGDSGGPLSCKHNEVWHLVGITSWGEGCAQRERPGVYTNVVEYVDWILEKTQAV
T1 sequence (P03951 19-387 partner limits assumed): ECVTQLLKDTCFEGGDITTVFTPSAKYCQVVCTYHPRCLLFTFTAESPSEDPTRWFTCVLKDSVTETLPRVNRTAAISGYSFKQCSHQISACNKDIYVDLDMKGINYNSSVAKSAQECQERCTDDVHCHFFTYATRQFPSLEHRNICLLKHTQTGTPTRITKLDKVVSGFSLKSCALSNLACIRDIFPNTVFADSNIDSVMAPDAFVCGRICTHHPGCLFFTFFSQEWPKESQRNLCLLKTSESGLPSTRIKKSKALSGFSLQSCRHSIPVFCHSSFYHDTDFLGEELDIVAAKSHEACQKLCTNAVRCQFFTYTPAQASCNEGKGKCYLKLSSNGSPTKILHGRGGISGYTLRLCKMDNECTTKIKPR
Type: biochemical
Procedure: The factor XIa inhibition of the inventive substances is determined using a biochemical test system which utilizes the reaction of a peptidic factor XIa substrate to determine the enzymatic activity of human factor XIa. Here, factor XIa cleaves from the peptic factor XIa substrate the C-terminal aminomethylcoumarin (AMC), the fluorescence of which is measured. The determinations are carried out in microtitre plates.
Test substances are dissolved in dimethyl sulphoxide and serially diluted in dimethyl sulphoxide (3000 μM to 0.0078 μM; resulting final concentrations in the test: 50 μM to 0.00013 μM). In each case 1 μl of the diluted substance solutions is placed into the wells of white microtitre plates from Greiner (384 wells). Subsequently, the following are added successively: 20 μl of assay buffer (50 mmol/l Tris buffer pH 7.4; 100 mmol/l sodium chloride; 5 mmol/l calcium chloride; 0.1% bovine serum albumin) and 20 μl of factor XIa from Kordia (0.45 nM in assay buffer). After 15 min of incubation, the enzyme reaction is started by addition of 20 μl of the factor XIa substrate Boc-Glu(OBzl)-Ala-Arg-AMC dissolved in assay buffer (10 μM in assay buffer) from Bachem, the mixture is incubated at room temperature (22° C.) for 30 min and fluorescence is then measured (excitation: 360 nm, emission: 460 nm). The measured emissions of the test mixtures with test substance are compared to those of control mixtures without test substance (only dimethyl sulphoxide instead of test substance in dimethyl sulphoxide), and the IC50 values are calculated from the concentration/activity relationships.

`Cc1cc(C(=O)NC2CCCNC2=O)ccc1-c1ccc(C[C@H](NC(=O)[C@H]2CC[C@H](CN)CC2)C(=O)Nc2ccc(-c3nc(C(F)F)n[nH]3)cc2)cc1` (stereo partly drawn) [Example 74, 4′-[(2S)-2-({[trans-4-(Aminomethyl)cyclohexyl]carbonyl}amino)-3-({4-[3-(difluoromethyl)-1H-1,2,4-triazol-5-yl]phenyl}amino)-3-oxopropyl]-2-methyl-N-(2-oxopiperidin-3-yl)biphenyl-4-carboxamide hydrochloride] and `Cc1cc(C(=O)N[C@@H]2CCCCNC2=O)ccc1-c1ccc(C[C@H](NC(=O)[C@H]2CC[C@H](CN)CC2)C(=O)Nc2ccc(-c3nn[nH]n3)cc2)cc1` [Example 64, 4′-[(2S)-2-({[trans-4-(Aminomethyl)cyclohexyl]carbonyl}amino)-3-oxo-3-{[4-(2H-tetrazol-5-yl)phenyl]amino}propyl]-2-methyl-N-[(3R)-2-oxoazepan-3-yl]biphenyl-4-carboxamide hydrochloride] are within 1.5-fold of each other in IC50: 1.3 nM for the first, 1.6 nM for the second.

First: Cc1cc(C(=O)NC2CCC(N(C)C)CC2)ccc1-c1ccc(C[C@H](NC(=O)[C@H]2CC[C@H](CN)CC2)C(=O)Nc2ccc(-c3nn[nH]n3)cc2)cc1 (stereo partly drawn) [Example 70, 4′-[(2S)-2-({[trans-4-(Aminomethyl)cyclohexyl]carbonyl}amino)-3-oxo-3-{[4-(2H-tetrazol-5-yl)phenyl]amino}propyl]-N-[4-(dimethylamino)cyclohexyl]-2-methylbiphenyl-4-carboxamide hydrochloride]
Second: COc1cc(C(=O)NC2CCC(N(C)C)CC2)ccc1-c1ccc(C[C@H](NC(=O)[C@H]2CC[C@H](CN)CC2)C(=O)Nc2ccc(-c3nn[nH]n3)cc2)cc1 (stereo partly drawn) [Example 67, 4′-[(2S)-2-({[trans-4-(Aminomethyl)cyclohexyl]carbonyl}amino)-3-oxo-3-{[4-(2H-tetrazol-5-yl)phenyl]amino}propyl]-N-[4-(dimethylamino)cyclohexyl]-2-methoxybiphenyl-4-carboxamide hydrochloride]
The IC50 of the first is 2.9-fold lower: 1.6 nM for the first, 4.6 nM for the second. The first is the more potent here.

`Cc1cc(C(=O)NC2CCC(O)C2)ccc1-c1ccc(CC(NC(=O)C2CCC(CN)CC2)C(=O)Nc2ccc(-c3nnn[nH]3)c(F)c2)cc1` [Example 92, 4′-[(2S)-2-({[trans-4-(Aminomethyl)cyclohexyl]carbonyl}amino)-3-{[3-fluoro-4-(2H-tetrazol-5-yl)phenyl]amino}-3-oxopropyl]-N-(3-hydroxycyclopentyl)-2-methylbiphenyl-4-carboxamide hydrochloride] and `Cc1cc(C(=O)NC2CCNCC2)ccc1-c1ccc(C[C@H](NC(=O)[C@H]2CC[C@H](CN)CC2)C(=O)Nc2ccc(-c3nn[nH]n3)cc2)cc1` [Example 1, 4′-[(2S)-2-({[trans-4-(Aminomethyl)cyclohexyl]carbonyl}amino)-3-oxo-3-{[4-(2H-tetrazol-5-yl)phenyl]amino}propyl]-2-methyl-N-(piperidin-4-yl)biphenyl-4-carboxamide hydrochloride] are within 1.5-fold of each other in IC50: 1.8 nM for the first, 2 nM for the second.

Compared with `Cc1cc(C(=O)N[C@@H]2CCNC2)ccc1-c1ccc(C[C@H](NC(=O)[C@H]2CC[C@H](CN)CC2)C(=O)Nc2ccc(-c3nc(C(F)(F)C(F)(F)F)n[nH]3)cc2)cc1` [Example 75, 4′-[(2S)-2-({[trans-4-(Aminomethyl)cyclohexyl]carbonyl}amino)-3-oxo-3-({4-[3-(pentafluoroethyl)-1H-1,2,4-triazol-5-yl]phenyl}amino)propyl]-2-methyl-N-[(3R)-pyrrolidin-3-yl]biphenyl-4-carboxamide hydrochloride], `COc1cc(C(=O)N[C@@H]2CCNC2)ccc1-c1ccc(C[C@H](NC(=O)[C@H]2CC[C@H](CN)CC2)C(=O)Nc2ccc(-c3nn[nH]n3)cc2)cc1` [Example 71, 4′-[(2S)-2-({[trans-4-(Aminomethyl)cyclohexyl]carbonyl}amino)-3-oxo-3-{[4-(2H-tetrazol-5-yl)phenyl]amino}propyl]-2-methoxy-N-[(3R)-pyrrolidin-3-yl]biphenyl-4-carboxamide hydrochloride] is 3-fold higher in IC50: 2.5 nM for the first, 7.4 nM for the second. The first is the more potent here.

Compared with `Cc1cc(C(=O)NC(CN(C)C)CN(C)C)ccc1-c1ccc(C[C@H](NC(=O)[C@H]2CC[C@H](CN)CC2)C(=O)Nc2ccc(-c3nn[nH]n3)cc2)cc1` [Example 66, 4′-[(2S)-2-({[trans-4-(Aminomethyl)cyclohexyl]carbonyl}amino)-3-oxo-3-{[4-(2H-tetrazol-5-yl)phenyl]amino}propyl]-N-[1,3-bis(dimethylamino)propan-2-yl]-2-methylbiphenyl-4-carboxamide hydrochloride], `CNC(=O)c1ccc(-c2ccc(C[C@H](NC(=O)[C@H]3CC[C@H](CN)CC3)C(=O)Nc3ccc(-c4nn[nH]n4)cc3)cc2)c(C)c1` [Example 19, 4′-[(2S)-2-({[trans-4-(Aminomethyl)cyclohexyl]carbonyl}amino)-3-oxo-3-{[4-(2H-tetrazol-5-yl)phenyl]amino}propyl]-N,2-dimethylbiphenyl-4-carboxamide] is 10-fold lower in IC50: 29 nM for the first, 2.9 nM for the second.

Going from `Cc1cc(C(=O)NC2CCC(N(C)C)CC2)ccc1-c1ccc(C[C@H](NC(=O)[C@H]2CC[C@H](CN)CC2)C(=O)Nc2ccc3c(=O)[nH][nH]c3c2)cc1` (stereo partly drawn) [Example 68, 4′-{(2S)-2-({[trans-4-(Aminomethyl)cyclohexyl]carbonyl}amino)-3-oxo-3-[(3-oxo-2,3-dihydro-1H-indazol-6-yl)amino]propyl}-N-[4-(dimethylamino)cyclohexyl]-2-methylbiphenyl-4-carboxamide hydrochloride] to `Cc1cc(C(=O)NC2CCNCC2)ccc1-c1ccc(C[C@H](NC(=O)[C@H]2CC[C@H](CN)CC2)C(=O)Nc2ccc(-c3nnc(CC(C)C)[nH]3)cc2)cc1` [Example 58, 4′-[(2S)-2-({[trans-4-(Aminomethyl)cyclohexyl]carbonyl}amino)-3-{[4-(3-isobutyl-4H-1,2,4-triazol-5-yl)phenyl]amino}-3-oxopropyl]-2-methyl-N-(piperidin-4-yl)biphenyl-4-carboxamide hydrochloride], the IC50 rises from 8.3 nM to 41 nM (4.9-fold).

`Cc1cc(C(=O)N2CCS(=O)(=O)CC2)ccc1-c1ccc(C[C@H](NC(=O)[C@H]2CC[C@H](CN)CC2)C(=O)Nc2ccc(-c3nn[nH]n3)cc2)cc1` [Example 69, trans-4-(Aminomethyl)-N-[(2S)-3-{4′-[(1,1-dioxidothiomorpholin-4-yl)carbonyl]-2′-methyl-biphenyl-4-yl}-1-oxo-1-{[4-(2H-tetrazol-5-yl)phenyl]amino}propan-2-yl]cyclohexanecarboxamide hydrochloride] and `Cc1cc(C(=O)N[C@H]2CCCN(C)C2)ccc1-c1ccc(C[C@H](NC(=O)[C@H]2CC[C@H](CN)CC2)C(=O)Nc2ccc(-c3nn[nH]n3)cc2)cc1` [Example 73, 4′-[(2S)-2-({[trans-4-(Aminomethyl)cyclohexyl]carbonyl}amino)-3-oxo-3-{[4-(2H-tetrazol-5-yl)phenyl]amino}propyl]-2-methyl-N-[(3S)-1-methylpiperidin-3-yl]biphenyl-4-carboxamide hydrochloride] are within 1.5-fold of each other in IC50: 2.4 nM for the first, 3.4 nM for the second.

Going from `Cc1cc(C(=O)N[C@H]2CC[C@H](O)CC2)ccc1-c1ccc(C[C@H](NC(=O)[C@H]2CC[C@H](CN)CC2)C(=O)Nc2ccc(-c3nnc(C(F)(F)C(F)(F)C(=O)O)[nH]3)cc2)cc1` (single isomer, unassigned; enantiomer 1) [Example 168] to `Cc1cc(C(=O)N[C@H]2CC[C@H](O)CC2)ccc1-c1ccc(C[C@@H](NC(=O)[C@H]2CC[C@H](CN)CC2)C(=O)Nc2ccc(-c3nnc(C(F)(F)C(F)(F)C(=O)O)[nH]3)cc2)cc1` (single isomer, unassigned; enantiomer 2) [Example 105], the IC50 rises from 0.5 nM to 65 nM (130-fold). The first is the more potent here.

Each compound was assayed on human and animal plasma (assay: Determination of anticoagulatory activity: activated partial thromboplastin time (aPTT) in plasma). Settings: concentration of test substance which brings about a 1.5-fold extension of the aPTT; plasma species not given.
Procedure: The anticoagulatory activity of the test substances is determined in vitro in human and animal plasma (for example mouse, rat, rabbit, pig and dog plasma). To this end, blood is drawn off in a mixing ratio of sodium citrate/blood of 1:9 using a 0.11 molar sodium citrate solution as receiver. Immediately after the blood has been drawn off, it is mixed thoroughly and centrifuged at about 4000 g for 15 minutes. The supernatant is pipetted off.
The activated partial thromboolastin time (aPTT) is determined in the presence of varying concentrations of test substance or the corresponding solvent using a commercial test kit (C. K. Prest from Diagnostica Stago). The test compounds are incubated with the plasma and the PTT reagent (cephalin, kaolin) at 37° C. for 3 minutes. Coagulation is then started by addition of a 25 mM aqueous calcium chloride solution, and the time when coagulation occurs is determined. The concentration of test substance which brings about a 1.5-fold extension of the aPTT is determined.

For `Cc1cc(C(=O)NC2CCN(C)CC2)ccc1-c1ccc(C[C@H](NC(=O)[C@H]2CC[C@H](CN)CC2)C(=O)Nc2ccc(-c3nc(C(F)(F)C(F)(F)C(=O)O)n[nH]3)cc2)cc1` [Example 130, 3-[5-(4-{[(2S)-2-({[trans-4-(Aminomethyl)cyclohexyl]carbonyl}amino)-3-{2′-methyl-4′-[(1-methylpiperidin-4-yl)carbamoyl]biphenyl-4-yl}propanoyl]amino}phenyl)-1H-1,2,4-triazol-3-yl]-2,2,3,3-tetrafluoropropanoic acid], the “aPTT” value was 0.12 µmol/L.
